Our source for the inhibition values is publication PMC6934184, “Selective DNA-PKcs inhibition extends the therapeutic index of localized radiotherapy and chemotherapy” (The Journal of Clinical Investigation, 2019).

The test has as its target T1, PRKCE (PKC epsilon) (Homo sapiens, UniProt Q02156).
T1 construct: purchased Thermo Fisher Scientific (Life Technologies) SelectScreen
Put plainly: SelectScreen Z'LYTE. It is filed as biochemical. The gist of the method:
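SelectScreen broad panel; activity (Z'LYTE, Adapta) plus binding formats. ATP: Km app for CSF1R Z'LYTE; 10 for CAMK1 Adapta. Readout = % per kinase.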

T1 sequence (Q02156 whole entry): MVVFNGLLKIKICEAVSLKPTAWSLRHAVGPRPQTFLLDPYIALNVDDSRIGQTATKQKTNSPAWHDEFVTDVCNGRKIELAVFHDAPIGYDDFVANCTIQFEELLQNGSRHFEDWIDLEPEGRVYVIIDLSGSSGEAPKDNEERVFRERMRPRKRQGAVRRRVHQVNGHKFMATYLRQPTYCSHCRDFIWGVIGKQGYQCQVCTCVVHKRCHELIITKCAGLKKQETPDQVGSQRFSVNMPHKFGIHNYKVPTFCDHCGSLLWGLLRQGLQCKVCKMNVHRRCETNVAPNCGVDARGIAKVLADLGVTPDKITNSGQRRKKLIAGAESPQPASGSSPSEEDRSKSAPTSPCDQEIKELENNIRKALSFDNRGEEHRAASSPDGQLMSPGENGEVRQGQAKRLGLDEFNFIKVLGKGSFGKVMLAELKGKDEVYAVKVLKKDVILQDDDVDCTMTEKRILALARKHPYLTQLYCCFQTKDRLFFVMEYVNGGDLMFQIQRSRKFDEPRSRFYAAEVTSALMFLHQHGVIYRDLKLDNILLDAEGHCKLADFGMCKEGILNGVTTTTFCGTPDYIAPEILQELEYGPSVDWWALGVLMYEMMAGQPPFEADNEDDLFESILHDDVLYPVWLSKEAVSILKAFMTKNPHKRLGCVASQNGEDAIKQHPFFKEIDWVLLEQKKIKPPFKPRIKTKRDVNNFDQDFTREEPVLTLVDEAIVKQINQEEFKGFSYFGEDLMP

In the case of `CN(C(=O)CN1CCOCC1)c1ccc2sc3c(-c4cccc5c(=O)cc(N6CC7CCC(C6)O7)oc45)cccc3c2c1` [NU5455], the inhibition at 1 µM was -4.9%.
